From patent US9694016B2 (Novartis AG, priority 2013, dated 2017)
Where two headings read alike, the source gives them in different places.

Biological target: b-Raf (V600E) (Homo sapiens (Human), UniProt P15056, V600E)
Conditions: read-out: b-Raf IC-50, AlphaScreen
[1] = 60 min pre-incubation, reaction 3 hours at room temperature
[2] = 60 min pre-incubation, 3 hours reaction

Sequence of b-Raf (V600E) (P15056 whole entry V600E): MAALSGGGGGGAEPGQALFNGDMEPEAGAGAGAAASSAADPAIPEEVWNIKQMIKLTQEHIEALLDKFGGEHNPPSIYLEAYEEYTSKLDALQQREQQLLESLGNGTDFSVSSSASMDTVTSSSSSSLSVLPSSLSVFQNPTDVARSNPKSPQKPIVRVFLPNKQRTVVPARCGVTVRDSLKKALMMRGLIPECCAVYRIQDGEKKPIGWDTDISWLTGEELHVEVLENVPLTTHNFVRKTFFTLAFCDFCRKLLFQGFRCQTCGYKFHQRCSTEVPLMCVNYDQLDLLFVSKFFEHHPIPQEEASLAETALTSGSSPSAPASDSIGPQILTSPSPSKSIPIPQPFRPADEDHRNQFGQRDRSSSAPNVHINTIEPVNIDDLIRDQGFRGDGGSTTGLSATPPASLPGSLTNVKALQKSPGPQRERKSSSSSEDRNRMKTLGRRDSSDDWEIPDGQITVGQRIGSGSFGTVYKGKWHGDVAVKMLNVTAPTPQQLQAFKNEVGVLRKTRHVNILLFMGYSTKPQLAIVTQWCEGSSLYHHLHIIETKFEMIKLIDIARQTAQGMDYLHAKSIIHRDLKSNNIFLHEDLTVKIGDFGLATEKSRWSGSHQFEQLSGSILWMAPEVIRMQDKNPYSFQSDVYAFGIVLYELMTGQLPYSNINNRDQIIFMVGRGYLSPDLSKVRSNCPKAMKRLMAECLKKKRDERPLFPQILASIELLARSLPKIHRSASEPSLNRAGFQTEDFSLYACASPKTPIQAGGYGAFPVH

Row | IC50 [1] [nM] | IC50 [2] [nM] | Structure (SMILES) | further results
1 | 1.3 | – | Cc1ncc(NC(=O)c2ccnc(C(C)C)c2)cc1-c1cc(N2CCOCC2)c2nccn2n1 [Example 869, 2-isopropyl-N-(6-methyl-5-(8-morpholinoimidazo[1,2-b]pyridazin-6-yl)pyridin-3-yl)isonicotinamide] | –
2 | 3.58 | – | Cc1ncc(NC(=O)c2ccnc(C(C)(C)F)c2)cc1-c1cc(N2CCOCC2)c(OC(C)C)nn1 [Example 911, 2-(2-fluoropropan-2-yl)-N-(5-(6-isopropoxy-5-morpholinopyridazin-3-yl)-6-methylpyridin-3-yl)isonicotinamide] | –
3 | – | 3.5 | CCOc1nnc(-c2cc(NC(=O)c3ccc(CN(C)C)c(C(F)(F)F)c3)ccc2C)cc1N1CCOCC1 [Example 576, 4-((dimethylamino)methyl)-N-(3-(6-ethoxy-5-morpholinopyridazin-3-yl)-4-methylphenyl)-3-(trifluoromethyl)benzamide] | –
4 | 3.64 | – | Cc1ccc(NC(=O)c2cc(C(C)(C)C#N)ccn2)cc1-c1cc(N2CCOCC2)c(=O)n(C)c1 [Example 903, 4-(2-cyanopropan-2-yl)-N-(4-methyl-3-(1-methyl-5-morpholino-6-oxo-1,6-dihydropyridin-3-yl)phenyl)picolinamide] | –
5 | – | 3.9 | Cc1ccc(NC(=O)c2ccnc(C(C)(C)F)c2)cc1-c1cc(N2CCOC[C@@H]2C)c(=O)n(C)n1 [Example 662, (S)-2-(2-fluoropropan-2-yl)-N-(4-methyl-3-(1-methyl-5-(3-methylmorpholino)-6-oxo-1,6-dihydropyridazin-3-yl)phenyl)isonicotinamide] | –
6 | – | – | COc1ccc(C(=O)Nc2ccc(C)c(-c3cc(N4CCOCC4)c(=O)n(C)c3)c2)cc1C(F)(F)F [Example 339, 4-methoxy-N-(4-methyl-3-(1-methyl-5-morpholino-6-oxo-1,6-dihydropyridin-3-yl)phenyl)-3-(trifluoromethyl)benzamide] | IC50 (Table 2, 3 hours reaction): 1.8 nM
7 | 0.85 | – | Cc1ccc(NC(=O)c2cccc(C(F)F)c2)cc1-c1cc(N2CCOCC2)nc(N2CC(O)C2)c1 [Example 1077, 3-(difluoromethyl)-N-(3-(2-(3-hydroxyazetidin-1-yl)-6-morpholinopyridin-4-yl)-4-methylphenyl)benzamide] | –
8 | – | 1.6 | CCOc1nnc(-c2cc(NC(=O)c3ccnc(C(F)(F)F)c3)cnc2C)cc1N1CCOCC1 [Example 616, N-(5-(6-ethoxy-5-morpholinopyridazin-3-yl)-6-methylpyridin-3-yl)-2-(trifluoromethyl)isonicotinamide] | –
9 | – | 0.4 | Cc1ccc(NC(=O)c2ccnc(C(F)F)c2)cc1-c1cc(N2CCOCC2)n2nccc2n1 [Example 805, 2-(difluoromethyl)-N-(4-methyl-3-(7-morpholinopyrazolo[1,5-a]pyrimidin-5-yl)phenyl)isonicotinamide] | –
10 | 3.84 | – | Cc1ccc(NC(=O)c2ccnc(C(C)(C)C#N)c2)cc1-c1cc(N2CCOCC2)nc(N2CC(O)C2)c1 [Example 1059, 2-(2-cyanopropan-2-yl)-N-(3-(2-(3-hydroxyazetidin-1-yl)-6-morpholinopyridin-4-yl)-4-methylphenyl)isonicotinamide] | –
11 | 2.44 | – | Cc1ncc(NC(=O)c2ccnc(C(F)F)c2)cc1-c1cnc(OC(F)F)c(N2CCOCC2)c1 [Example 982, N-(6′-(difluoromethoxy)-2-methyl-5′-morpholino-[3,3′-bipyridin]-5-yl)-2-(difluoromethyl)isonicotinamide] | –
12 | – | – | Cc1ncc(NC(=O)c2cccc(C(F)(F)F)c2)cc1-c1cnc(O[C@H]2CCOC2)c(N2CCOCC2)c1 [Example 310, (S)—N-(2-methyl-5′-morpholino-6′-((tetrahydrofuran-3-yl)oxy)-[3,3′-bipyridin]-5-yl)-3-(trifluoromethyl)benzamide] | IC50 (Table 2, 3 hours reaction): 1.8 nM
13 | – | – | Cc1ncc(NC(=O)c2cccc(C(F)(F)F)c2)cc1-c1cnc(OC(C)C)c(N2CCOCC2)c1 [Example 134, N-(6′-isopropoxy-2-methyl-5′-morpholino-[3,3′-bipyridin]-5-yl)-3-(trifluoromethyl)benzamide] | IC50 (Table 2, 3 hours reaction): 2.4 nM
14 | 3.89 | – | Cc1ccc(NC(=O)c2cccc(-c3nnco3)c2)cc1-c1cc(N2CCOCC2)nc(N2CC(O)C2)c1 [Example 1100, N-(3-(2-(3-hydroxyazetidin-1-yl)-6-morpholinopyridin-4-yl)-4-methylphenyl)-3-(1,3,4-oxadiazol-2-yl)benzamide] | –
15 | 13.6 | – | Cc1ncc(NC(=O)c2ccnc(C(C)(C)O)c2)cc1-c1cnc(OC(F)F)c(N2CCOCC2)c1 [Example 979, N-(6′-(difluoromethoxy)-2-methyl-5′-morpholino-[3,3′-bipyridin]-5-yl)-2-(2-hydroxypropan-2-yl)isonicotinamide] | –
16 | – | – | Cc1ccc(NC(=O)c2cc(C3CC3)on2)cc1-c1cc(N2CCOCC2)c(=O)n(C)c1 [Example 372, 5-cyclopropyl-N-(4-methyl-3-(1-methyl-5-morpholino-6-oxo-1,6-dihydropyridin-3-yl)phenyl)isoxazole-3-carboxamide] | IC50 (Table 2, 3 hours reaction): 0.7 nM
17 | – | 2.7 | COc1nnc(-c2cc(NC(=O)c3ccnc(C(C)(F)F)c3)cnc2C)cc1N1CCOCC1 [Example 603, 2-(1,1-difluoroethyl)-N-(5-(6-methoxy-5-morpholinopyridazin-3-yl)-6-methylpyridin-3-yl)isonicotinamide] | –

Row | IC50 [1] [nM] | IC50 [2] [nM] | Structure (SMILES) | further results
18 | – | 2.2 | Cc1ccc(NC(=O)c2ccnc(C(C)(F)F)c2)cc1-c1cc(N2CCOCC2)nc(OC2CNC2)n1 [Example 779, N-(3-(2-(azetidin-3-yloxy)-6-morpholinopyrimidin-4-yl)-4-methylphenyl)-2-(1,1-difluoroethyl)isonicotinamide] | –
19 | – | – | Cc1ccc(NC(=O)c2cnnc(C(C)(C)F)c2)cc1-c1cc(N2CCOCC2)c(=O)n(C)c1 [Example 363, 6-(2-fluoropropan-2-yl)-N-(4-methyl-3-(1-methyl-5-morpholino-6-oxo-1,6-dihydropyridin-3-yl)phenyl)pyridazine-4-carboxamide] | IC50 (Table 2, 3 hours reaction): 3.8 nM
20 | – | 0.8 | CCNc1nc(-c2cc(NC(=O)c3ccnc(C(F)(F)CC)c3)ccc2C)cc(N2CCOCC2)n1 [Example 706, 2-(1,1-difluoropropyl)-N-(3-(2-(ethylamino)-6-morpholinopyrimidin-4-yl)-4-methylphenyl)isonicotinamide] | –
21 | – | – | Cc1ccc(NC(=O)c2cccc(C(F)(F)F)c2)cc1-c1cc(N2CCOCC2)nc(-n2ccnc2)n1 [Example 33, N-(3-(2-(1H-imidazol-1-yl)-6-morpholinopyrimidin-4-yl)-4-methylphenyl)-3-(trifluoromethyl)benzamide] | IC50 (Table 2, 3 hours reaction): 0.5 nM
22 | 1.11 | – | Cc1ccc(NC(=O)c2cc(C3CC3)on2)cc1-c1cc(N2CCOCC2)nc(N2CC(O)C2)c1 [Example 1095, 5-cyclopropyl-N-(3-(2-(3-hydroxyazetidin-1-yl)-6-morpholinopyridin-4-yl)-4-methylphenyl)isoxazole-3-carboxamide] | –
23 | 6.58 | – | Cc1ncc(NC(=O)c2cc(C3CC3)on2)cc1-c1cc(N2CCOCC2)nc(N2CC(O)C2)c1 [Example 1093, 5-cyclopropyl-N-(2′-(3-hydroxyazetidin-1-yl)-2-methyl-6′-morpholino-[3,4′-bipyridin]-5-yl)isoxazole-3-carboxamide] | –
24 | – | 11.1 | Cc1ncc(NC(=O)c2cccc(C(F)(F)F)c2)cc1-c1cc(N2CCOCC2)nc(N2CC(O)C2)n1 [Example 768, N-(5-(2-(3-hydroxyazetidin-1-yl)-6-morpholinopyrimidin-4-yl)-6-methylpyridin-3-yl)-3-(trifluoromethyl)benzamide] | –
25 | – | 0.2 | Cc1ccc(NC(=O)c2cccc(C(F)(F)F)c2)cc1-c1nc(N2CCOCC2)c2c(cnn2C)n1 [Example 837, N-(4-methyl-3-(1-methyl-7-morpholino-1H-pyrazolo[4,3-d]pyrimidin-5-yl)phenyl)-3-(trifluoromethyl)benzamide] | –
26 | – | 0.6 | CCOc1nnc(-c2cc(NC(=O)c3ccnc(C(F)F)c3)ccc2C)cc1N1CCOCC1 [Example 562, 2-(difluoromethyl)-N-(3-(6-ethoxy-5-morpholinopyridazin-3-yl)-4-methylphenyl)isonicotinamide] | –
27 | – | – | Cc1ncc(NC(=O)c2cccc(C(F)(F)F)c2)cc1-c1cnc(OC2CCCC(O)C2)c(N2CCOCC2)c1 (single isomer, unassigned) [Example 320, N-(6′-((3-hydroxycyclohexyl)oxy)-2-methyl-5′-morpholino-[3,3′-bipyridin]-5-yl)-3-(trifluoromethyl)benzamide] | IC50 (Table 2, 3 hours reaction): 1.7 nM
28 | – | – | CCOc1ncc(-c2cc(NC(=O)c3cccc(C(F)(F)F)c3)ccc2C)cc1N1CCOCC1 [Example 235] | IC50 (Table 2, 3 hours reaction): 1 nM
29 | 2.32 | – | Cc1ccc(NC(=O)c2ccnc(C(F)(F)F)c2)cc1-c1cc(NC[C@@H](C)O)nc(N2CCOCC2)n1 [Example 1023, (R)—N-(3-(6-((2-hydroxypropyl)amino)-2-morpholinopyrimidin-4-yl)-4-methylphenyl)-2-(trifluoromethyl)isonicotinamide] | –
30 | – | – | Cn1cc(-c2cc(NC(=O)c3ccnc(C(C)(F)F)c3)cnc2Cl)cc(N2CCOCC2)c1=O [Example 405, N-(2-chloro-1′-methyl-5′-morpholino-6′-oxo-1′,6′-dihydro-[3,3-bipyridin]-5-yl)-2-(1,1-difluoroethyl)isonicotinamide] | IC50 (Table 2, 3 hours reaction): 4.5 nM
31 | 0.8 | – | Cc1ncc(NC(=O)c2cncc(C(F)(F)F)c2)cc1-c1cc(N2CCOCC2)c(OCC(F)F)nn1 [Example 917, N-(5-(6-(2,2-difluoroethoxy)-5-morpholinopyridazin-3-yl)-6-methylpyridin-3-yl)-5-(trifluoromethyl)nicotinamide] | –
32 | 12.9 | – | Cc1ccc(NC(=O)c2ccnc(C(C)(C)C#N)c2)cc1-c1cc(NC[C@@H](C)O)nc(N2CCOCC2)n1 [Example 1026, (R)-2-(2-cyanopropan-2-yl)-N-(3-(6-((2-hydroxypropyl)amino)-2-morpholinopyrimidin-4-yl)-4-methylphenyl)isonicotinamide] | –
33 | 58.2 | – | Cc1ncc(NC(=O)c2ccnc(C(C)(C)O)c2)cc1-c1cc(N2CCOCC2)nc(N2CC(O)C2)c1 [Example 1082, N-(2′-(3-hydroxyazetidin-1-yl)-2-methyl-6′-morpholino-[3,4′-bipyridin]-5-yl)-2-(2-hydroxypropan-2-yl)isonicotinamide] | –
